The test deals with Integrase (Human immunodeficiency virus 1, UniProt Q7ZJM1). The test is described as follows: Compound concentration required to reduce HIV-1 Integrase 3'-processing activity by 50%.
Integrase, sequence (Q7ZJM1 whole entry): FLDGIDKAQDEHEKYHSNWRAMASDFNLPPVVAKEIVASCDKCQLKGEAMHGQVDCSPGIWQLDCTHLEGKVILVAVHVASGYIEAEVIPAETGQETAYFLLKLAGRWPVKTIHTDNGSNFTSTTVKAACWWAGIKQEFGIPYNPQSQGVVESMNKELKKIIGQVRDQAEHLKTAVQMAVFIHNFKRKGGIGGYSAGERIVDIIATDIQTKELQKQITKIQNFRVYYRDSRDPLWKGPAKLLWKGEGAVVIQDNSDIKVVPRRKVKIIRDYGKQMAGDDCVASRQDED

A word on the IC50: it is the concentration at which inhibition is half-maximal. Higher therefore signals a need for much substance. Consider `O=C(C=Cc1ccccc1)CC(=O)C=Cc1ccccc1` [5-Hydroxy-1,7-diphenylhepta-1,4,6-trien-3-one], for which the IC50 was greater than 100 µM.

With `COc1ccc(C=CC(=O)CC(=O)C=Cc2ccc(OC)c(OC)c2)cc1OC` [(1E,4Z,6E)-1,7-bis(3,4-dimethoxyphenyl)-5-hydroxyhepta-1,4,6-trien-3-one], the concentration for half-maximal inhibition (IC50) is greater than 100 µM.

For the origin of these results see BindingDB's records for doi:10.1021/jm9707232 (Sapienza University of Rome, 1998).
